Assay results published in ChEMBL document CHEMBL4004843, “"Addition" and "Subtraction": Selectivity Design for Type II Maternal Embryonic Leucine Zipper Kinase Inhibitors” (J Med Chem, 2017).
pIC50: −log10 of the molar value.

Key:
[1] = molecular target: Maternal embryonic leucine zipper kinase (Homo sapiens, UniProt Q14680); assay: Inhibition of MELK (unknown origin) containing kinase domain and UBA domain using STK S1 as substrate after 20 mins by HTRF assay
[2] = molecular target: Rho-associated protein kinase 2 (Homo sapiens, UniProt O75116); assay: Inhibition of ROCK2 (unknown origin)
Chain of Rho-associated protein kinase 2 (O75116 whole entry): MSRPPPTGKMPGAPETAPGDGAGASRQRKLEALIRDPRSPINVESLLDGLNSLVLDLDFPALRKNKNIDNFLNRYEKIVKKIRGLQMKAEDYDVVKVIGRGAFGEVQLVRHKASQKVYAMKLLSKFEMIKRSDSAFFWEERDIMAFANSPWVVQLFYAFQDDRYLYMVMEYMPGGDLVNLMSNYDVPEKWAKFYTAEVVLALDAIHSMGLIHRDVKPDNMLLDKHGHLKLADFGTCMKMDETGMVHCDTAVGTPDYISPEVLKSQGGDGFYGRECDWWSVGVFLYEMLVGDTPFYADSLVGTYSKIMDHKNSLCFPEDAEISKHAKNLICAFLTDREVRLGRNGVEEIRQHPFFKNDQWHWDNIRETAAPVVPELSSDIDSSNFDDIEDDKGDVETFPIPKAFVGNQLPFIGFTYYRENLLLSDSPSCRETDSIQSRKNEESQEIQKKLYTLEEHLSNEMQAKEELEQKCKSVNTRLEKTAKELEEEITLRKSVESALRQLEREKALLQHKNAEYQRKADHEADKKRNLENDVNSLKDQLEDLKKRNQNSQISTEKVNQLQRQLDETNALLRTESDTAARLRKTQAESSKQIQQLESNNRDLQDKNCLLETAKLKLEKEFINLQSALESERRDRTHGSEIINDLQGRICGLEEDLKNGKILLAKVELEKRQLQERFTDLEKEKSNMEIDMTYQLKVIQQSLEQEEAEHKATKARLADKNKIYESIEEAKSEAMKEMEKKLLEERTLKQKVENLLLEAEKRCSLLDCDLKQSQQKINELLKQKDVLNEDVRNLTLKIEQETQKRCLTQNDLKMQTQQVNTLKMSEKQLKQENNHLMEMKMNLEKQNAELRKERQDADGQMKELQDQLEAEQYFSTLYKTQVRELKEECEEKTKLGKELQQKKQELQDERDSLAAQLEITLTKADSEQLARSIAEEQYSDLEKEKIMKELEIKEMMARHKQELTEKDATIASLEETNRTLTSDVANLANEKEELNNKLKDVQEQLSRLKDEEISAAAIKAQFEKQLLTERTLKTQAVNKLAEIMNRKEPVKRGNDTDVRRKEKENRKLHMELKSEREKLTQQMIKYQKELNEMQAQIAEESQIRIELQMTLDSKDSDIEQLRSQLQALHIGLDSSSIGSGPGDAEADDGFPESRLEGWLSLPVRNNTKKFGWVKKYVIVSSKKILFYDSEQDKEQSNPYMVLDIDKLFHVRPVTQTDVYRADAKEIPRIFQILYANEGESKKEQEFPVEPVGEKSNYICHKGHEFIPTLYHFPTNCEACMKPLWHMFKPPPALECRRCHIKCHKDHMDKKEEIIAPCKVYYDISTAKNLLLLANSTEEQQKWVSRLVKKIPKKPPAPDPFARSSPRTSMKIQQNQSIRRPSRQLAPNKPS

Chain of Maternal embryonic leucine zipper kinase (Q14680 whole entry, the tested form may be a part): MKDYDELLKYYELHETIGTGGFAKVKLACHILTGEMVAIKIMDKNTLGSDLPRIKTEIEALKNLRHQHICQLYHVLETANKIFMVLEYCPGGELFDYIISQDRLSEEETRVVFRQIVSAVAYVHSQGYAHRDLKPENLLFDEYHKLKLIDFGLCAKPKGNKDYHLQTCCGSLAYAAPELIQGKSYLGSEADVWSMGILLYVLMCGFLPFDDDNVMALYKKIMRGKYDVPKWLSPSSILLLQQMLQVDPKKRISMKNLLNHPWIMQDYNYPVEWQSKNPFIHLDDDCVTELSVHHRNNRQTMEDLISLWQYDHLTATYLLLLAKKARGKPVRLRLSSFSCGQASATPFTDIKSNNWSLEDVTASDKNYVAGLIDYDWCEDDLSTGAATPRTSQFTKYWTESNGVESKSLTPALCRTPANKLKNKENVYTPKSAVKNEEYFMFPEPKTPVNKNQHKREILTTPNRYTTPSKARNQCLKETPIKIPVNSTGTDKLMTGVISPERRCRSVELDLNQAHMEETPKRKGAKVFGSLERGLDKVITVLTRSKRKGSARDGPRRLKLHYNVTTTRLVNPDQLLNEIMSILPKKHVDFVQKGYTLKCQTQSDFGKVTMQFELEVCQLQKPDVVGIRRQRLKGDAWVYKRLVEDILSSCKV

Row | SMILES | pIC50 [1] | pIC50 [2]
1 | COc1ccc2nc(CNC(=O)c3ccc(-c4cnccc4OCC4CCNCC4)cc3)[nH]c2c1 | 8.82 | 5.11
2 | CNc1ncc(-c2ccc(C(=O)NCC(=O)Nc3ccccc3)cc2)c(OCC2CCNCC2)n1 | 6.92 | 
3 | CNc1ncc(-c2ccc(C(=O)NCc3nc4ccccc4[nH]3)cc2)c(OCC2CCNCC2)n1 | 8.04 | 
4 | COc1ccc2nc(CNC(=O)c3ccc(-c4cnc(Nc5ccccc5)nc4OCC4CCNCC4)cc3)[nH]c2c1 | 9.82 | 
5 | O=C(CNC(=O)c1ccc(-c2cnc(Nc3ccccc3)nc2OCC2CCNCC2)cc1)Nc1ccccc1 | 8.06 | 
6 | O=C(NCc1nc2ccccc2[nH]1)c1ccc(-c2cnc(Nc3ccccc3)nc2OCC2CCNCC2)cc1 | 8.96 | 
7 | O=C(NCc1nc2ccccc2[nH]1)c1ccc(-c2cnccc2OCC2CCNCC2)cc1 | 7.92 | 
8 | O=C(CNC(=O)c1ccc(-c2cnccc2OCC2CCNCC2)cc1)Nc1ccccc1 | 6.13 | 6.44
9 | CNc1ncc(-c2ccc(C(=O)NCc3nc4ccc(OC)cc4[nH]3)cc2)c(OCC2CCNCC2)n1 | 8.82 | 
